From paper PMC4792161, “A novel pyrazole derivative protects from ovariectomy-induced osteoporosis through the inhibition of NADPH oxidase” (Scientific Reports, 2016)
Counter-ions that a name gives are not always drawn. Marks after values point to notes of the source that are not given here.

What was measured:
[1] = Direct ROS (H2O2) scavenging in vitro; details: 20 μM compound, 1 mM H2O2
From the text: Based on the notion that the differentiation of OCs is mediated by Nox1/2/4-dependent ROS generation, we have performed a high throughput enzyme inhibitor screening assay to identify chemical compounds having Nox1/2/4 inhibitory activity for the development of an anti-osteoporosis agent. Purified Drosophila membranes expressing human Nox1, Nox2, or Nox4 were used to monitor ROS production by determining the oxidation of lucigenin, evident as chemiluminescence, in the absence or presence of chemical compound[18]. A chemical library containing 31,000 compounds was screened to identify Nox inhibitors. […] (Fig. 1B, Supplementary Fig. S2). […] Moreover, we investigated whether Ewha-18278 can directly scavenge ROS in vitro.
Supplementary Figure S3. (A) Ewha-18278 compounds can not directly scavenge superoxide or other reactive species in vitro. ROS (H2O2) measured with lucigenin. Reaction mixtures contained 1 […]
Luminescence measured over 30 min at 37
°C with luminometor (Gloma X luminometor, Turner BioSystem). […]
the phagocytosis of zymosan. […]
incubated with FITC-zymosan particles, and internalized fluorescence was measured by flow cytometry. The data are presented as the MFI of internalized FITC. Data represent mean ± S.D. […]

[2] = test system: OVX-induced osteoporotic ddY mice; test: Femur weights (wet, dry, ash) in OVX mice; assay type: in vivo
Method: (§1) The right sides of femur and tibia were weighed and then dried at 120 °C for 8 hours. The dried bones were carbonized at 800 °C for 6 hours in a furnace (Daihan Scientific, Korea) to detect ash absolute weights, after measurement of BMD and failure load. To reduce the individual body weight differences, the relative weight (%) was calculated using body weight at sacrifice and absolute weight as [Relative bone weights = (Absolute bone weight/Body weight at sacrifice) ×100]. In addition, ashed bones were ground and dissolved in nitric acid. In diluted solution, Ca and P contents were calculated (mg/g bone) using an orthocresolphthalein complex and enzyme methods, respectively. The Ca/P ratio (%) was calculated as (Tibia Ca contents/Tibia P contents) ×100.

Mature OCs = test: Bone resorption assay on dentine discs; assay type: cell-based, C57BL/6 mice; details: 10 μM, 24 hours
Method: The cells were removed from the dentine discs and the dentine discs were stained with hematoxylin. Pit areas were photographed under a light microscope and analyzed using Image-Pro Plus version 4.5 software (Media-Cybernetics, Rockville, MD, USA). […]
Scale bar, 500 μm. (C,D) Mature OCs were generated with M-CSF and RANKL, cells were seeded onto dentine discs and further cultured with […]
Cells were stained with hematoxylin for visualization of pit formation (C). The area of resorption pits were measured with Image-Pro Plus 4.5 (D). Scale bar, 500
μm. Data represent mean ± S.D., n.s., not significant. […]

glucose oxidase = glucose oxidase (Aspergillus niger, UniProt P13006); test: Glucose oxidase assay (lucigenin); assay type: biochemical
glucose oxidase, sequence (P13006 17-605, species assumed): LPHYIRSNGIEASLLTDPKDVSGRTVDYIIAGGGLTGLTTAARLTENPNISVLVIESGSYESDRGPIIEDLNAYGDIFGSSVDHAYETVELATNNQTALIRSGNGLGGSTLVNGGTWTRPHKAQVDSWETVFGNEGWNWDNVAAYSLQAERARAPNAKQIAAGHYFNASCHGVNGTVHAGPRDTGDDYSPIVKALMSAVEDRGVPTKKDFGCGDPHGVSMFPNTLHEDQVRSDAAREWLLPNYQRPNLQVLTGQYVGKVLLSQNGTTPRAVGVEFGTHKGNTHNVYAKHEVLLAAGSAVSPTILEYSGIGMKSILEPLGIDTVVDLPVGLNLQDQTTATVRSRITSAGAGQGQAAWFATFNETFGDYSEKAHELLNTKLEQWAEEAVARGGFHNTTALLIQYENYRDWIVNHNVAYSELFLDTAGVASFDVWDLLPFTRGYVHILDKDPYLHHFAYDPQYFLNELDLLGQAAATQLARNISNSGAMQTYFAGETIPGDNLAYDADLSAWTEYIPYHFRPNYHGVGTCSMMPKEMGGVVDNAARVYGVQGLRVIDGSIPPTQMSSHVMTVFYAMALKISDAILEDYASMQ
Method: Glucose oxidase activity was measured by lucigenin. Reaction mixtures contained 0.75 mM glucose, 0.25 mg/ml glucose oxidase, and 0.4 mM lucigenin with the indicated inhibitor (0–20μM). Luminescence was measured over 30 min at 37 °C with luminometor (DTX800, Beckman coulter).

[3] = test system: OVX-induced osteoporotic ddY mice; test: Tibia weights (wet, dry, ash) in OVX mice; assay type: in vivo
Method: as §1
Supplementary Table S4. Tibia Weights in OVX Mice Values are expressed mean ± S.D. of eight mice Risedronate sodium was administered at 2.5mg/kg levels a p<0.01 as compared with sham control […]
material OVX = ovariectomy
Groups Tibia absolute weights (g) Tibia relative weights (% of body weight)Wet Dry Ash Wet Dry Ash

[4] = test system: OVX-induced osteoporotic ddY mice; test: Femur histopathology-histomorphometry in OVX mice; assay type: in vivo
Method: Risedronate sodium (2.5 mg/kg) served as a reference compound. […] Histopathology and histomorphometrical analyses including trabecular bone volume (BV/TV), trabecular bone number (Tb.N), trabecular bone length (Tb.Le), trabecular bone thickness (Tb.Th), cortical bone thickness (Ct.Th), OC number (N.Oc), bone mineral density (BMD) and bone strength (failure load, FL) were conducted.
The study was reviewed and approved by the Institutional Animal Care and Use Committee (IACUC) of Center for Laboratory Animal Sciences, Ewha Industry-University Cooperation Foundation, Ewha Womans University. Experimental methods were carried out in accordance with the approved ethic guidelines in Ewha Industry-University Cooperation Foundation, Ewha Womans University. Beginning 4 weeks after OVX, the female ddY mice received 2.5, 5, 10, or 20 mg/kg of #18–278, 2.5 mg/kg of risedronate, or vehicle once daily for 28 days. The Changes in body weight, bone weight, bone mineral density (BMD), failure load (FL), bone calcium (Ca), inorganic phosphorus (P) contents, histology and histomorphology were monitored. Serum osteocalcin and bone specific alkaline phosphatase (bALP) were monitored in mice receiving Ewha-18278.
The left side of femur of each mouse was separated and fixed in 10% neutral buffered formalin and decalcified in a solution comprised of 24.4% formic acid and 0.5N sodium hydroxide for 5 days, with spent solution replaced with fresh solution each day. Each sample was embedded in paraffin, sectioned to a thickness of 3–4 μm and exposed to with Hematoxylin & Eosin (H&E) stain. Histomorphometry was conducted as for bone mass and structure with bone resorption in a uniform area of epiphyseal regions of femur (growth plate regions were excluded). Cortical bone thickness was measured in the mid-shaft region of the femur.

[5] = 2.5 mg/kg oral once daily 28 days
[6] = 5 mg/kg oral once daily 28 days
[7] = 10 mg/kg oral once daily 28 days
[8] = 20 mg/kg oral once daily 28 days

## CCCc1c(-c2ccccc2)nn(-c2ccccn2)c1O [Ewha-18278, 3-phenyl-1-(pyridin-2-yl)-4-propyl-1H-5-hydroxypyrazole HCl]
[1]
  change in hydrogen peroxide concentration (ROS scavenging): had no effect
[2]; [5]
  Femur absolute weights, Ash: 0.030 g
  Femur absolute weights, Dry: 0.065 g
  Femur absolute weights, Wet: 0.097 g
[2]; [6]
  Femur absolute weights, Ash: 0.037 g
  Femur absolute weights, Dry: 0.065 g
  Femur absolute weights, Wet: 0.093 g
[2]; [7]
  Femur absolute weights, Ash: 0.038 g
  Femur absolute weights, Dry: 0.067 g
  Femur absolute weights, Wet: 0.096 g
[2]; [8]
  Femur absolute weights, Ash: 0.038 g
  Femur absolute weights, Dry: 0.067 g
  Femur absolute weights, Wet: 0.096 g
Mature OCs
  bone resorption activity of OCs: did not affect
Glucose oxidase
  inhibitory activity on glucose oxidase: no inhibitory activities
[3]; [5]
  Tibia absolute weights, Ash: 0.027 g
  Tibia absolute weights, Dry: 0.051 g
  Tibia absolute weights, Wet: 0.070 g
[3]; [6]
  Tibia absolute weights, Ash: 0.030 g
  Tibia absolute weights, Dry: 0.051 g
  Tibia absolute weights, Wet: 0.071 g
[3]; [7]
  Tibia absolute weights, Ash: 0.030 g
  Tibia absolute weights, Dry: 0.052 g
  Tibia absolute weights, Wet: 0.071 g
[3]; [8]
  Tibia absolute weights, Ash: 0.032 g
  Tibia absolute weights, Dry: 0.052 g
  Tibia absolute weights, Wet: 0.071 g
[4]; [5]
  BV/TV (trabecular bone volume): 23.62 ± 3.63 ^a %
  Ct.Th (cortical bone thickness): 136.48 ± 10.32 ^a μm
  N.OC/BS (osteoclast cell number, N/epiphyseal): 13.75 ± 2.25 ^e numbers
  Tb.N (trabecular bone number, N/epiphyseal): 9.75 ± 1.67 ^e numbers
  Tb.Th (trabecular bone thickness): 40.98 ± 5.94 ^a μm
[4]; [6]
  BV/TV (trabecular bone volume): 29.06 ± 2.72 ^ac %
  Ct.Th (cortical bone thickness): 159.04 ± 13.45 ^ac μm
  N.OC/BS (osteoclast cell number, N/epiphyseal): 10.63 ± 2.77 ^eg numbers
  Tb.N (trabecular bone number, N/epiphyseal): 11.25 ± 1.04 ^eh numbers
  Tb.Th (trabecular bone thickness): 52.98 ± 8.96 ^ac μm
[4]; [7]
  BV/TV (trabecular bone volume): 33.63 ± 3.51 ^c %
  Ct.Th (cortical bone thickness): 165.52 ± 12.06 ^ac μm
  N.OC/BS (osteoclast cell number, N/epiphyseal): 6.63 ± 1.30 ^eg numbers
  Tb.N (trabecular bone number, N/epiphyseal): 15.38 ± 1.60 ^eg numbers
  Tb.Th (trabecular bone thickness): 68.14 ± 11.23 ^ac μm
[4]; [8]
  BV/TV (trabecular bone volume): 34.07 ± 3.89 ^c %
  Ct.Th (cortical bone thickness): 198.06 ± 12.51 ^c μm
  N.OC/BS (osteoclast cell number, N/epiphyseal): 5.63 ± 1.41 ^fg numbers
  Tb.N (trabecular bone number, N/epiphyseal): 16.63 ± 1.19 ^eg numbers
  Tb.Th (trabecular bone thickness): 71.98 ± 12.20 ^ac μm
